Reference: patent US12077503B2, “Substituted cyclic amides and their use as herbicides” (FMC CORPORATION, priority 2015, dated 2024)

Tests used:
Assay type in all cases: in vivo
[1] = tested on: barnyardgrass (Echinochloa crus-galli); assay: Test G Pre-Emergence Protocol; conditions: Echinochloa crus-galli, pre-emergence, 312 h, evaluated after 13 days; for pest or weed control at 15.625 g/ha: 15.625 g ai/ha, read-out: Barnyard grass damage rating (100=total damage to plant; 0=no damage to plant); for pest or weed control at 62.5 g/ha: 62.5 g ai/ha, 100=total damage to plant, 0=no damage to plant, read-out: plant damage rating, Barnyardgrass; for pest or weed control at 250 g/ha: 250 g ai/ha, read-out: Barnyardgrass damage rating (100=total damage to plant; 0=no damage to plant)
Method in brief: (§1)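 Herbicidal effect was rated 13 days post-application on a scale where 100 equals total damage. Spraying took place the day after sowing, using 15.625, 62.5 or 250 g/ha of compound in a 50:50 acetone/water solution with 0.5% Tween 20.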

corn (Zea mays) [2] = assay: Test G Pre-Emergence Protocol; conditions: Zea mays, pre-emergence, 312 h, evaluated after 13 days; for plant injury at 15.625 g/ha: 15.625 g ai/ha; for plant injury at 15.625 g/ha / plant injury at 250 g/ha: read-out: Corn damage rating (100=total damage to plant; 0=no damage to plant); for plant injury at 62.5 g/ha: 62.5 g ai/ha, 100=total damage to plant, 0=no damage to plant, read-out: plant damage rating, Corn; for plant injury at 250 g/ha: 250 g ai/ha
Method in brief: as §1

[3] = tested on: giant foxtail (Setaria faberi); assay: Test G Pre-Emergence Protocol; conditions: Setaria faberi, pre-emergence, 312 h, evaluated after 13 days; for pest or weed control at 15.625 g/ha: 15.625 g ai/ha; for pest or weed control at 15.625 g/ha / pest or weed control at 250 g/ha: read-out: Foxtail, Giant damage rating (100=total damage to plant; 0=no damage to plant); for pest or weed control at 62.5 g/ha: 62.5 g ai/ha, 100=total damage to plant, 0=no damage to plant, read-out: plant damage rating, Foxtail, Giant; for pest or weed control at 250 g/ha: 250 g ai/ha
Method in brief: as §1

[4] = tested on: ivy-leaved morning glory (Ipomoea hederacea); assay: Test G Pre-Emergence Protocol; conditions: Ipomoea, pre-emergence, 312 h, evaluated after 13 days; for pest or weed control at 15.625 g/ha: 15.625 g ai/ha, read-out: Morning-glory, Ivy-leaved damage rating (100=total damage to plant; 0=no damage to plant); for pest or weed control at 62.5 g/ha: 62.5 g ai/ha, 100=total damage to plant, 0=no damage to plant, read-out: plant damage rating, Morningglory, Ivy-leaved; for pest or weed control at 250 g/ha: 250 g ai/ha, read-out: Morningglory, Ivy-leaved damage rating (100=total damage to plant; 0=no damage to plant)
Method in brief: as §1

[5] = tested on: redroot pigweed (Amaranthus retroflexus); assay: Test G Pre-Emergence Protocol; conditions: Amaranthus retroflexus, pre-emergence, 312 h, evaluated after 13 days; for pest or weed control at 15.625 g/ha: 15.625 g ai/ha; for pest or weed control at 15.625 g/ha / pest or weed control at 250 g/ha: read-out: Pigweed, Redroot damage rating (100=total damage to plant; 0=no damage to plant); for pest or weed control at 62.5 g/ha: 62.5 g ai/ha, 100=total damage to plant, 0=no damage to plant, read-out: plant damage rating, Pigweed, Redroot; for pest or weed control at 250 g/ha: 250 g ai/ha
Method in brief: as §1

[6] = tested on: velvetleaf (Abutilon theophrasti); assay: Test G Pre-Emergence Protocol; conditions: Abutilon theophrasti, pre-emergence, 312 h, evaluated after 13 days; for pest or weed control at 15.625 g/ha: 15.625 g ai/ha; for pest or weed control at 15.625 g/ha / pest or weed control at 250 g/ha: read-out: Velvetleaf damage rating (100=total damage to plant; 0=no damage to plant); for pest or weed control at 62.5 g/ha: 62.5 g ai/ha, 100=total damage to plant, 0=no damage to plant, read-out: plant damage rating, Velvetleaf; for pest or weed control at 250 g/ha: 250 g ai/ha
Method in brief: as §1

[7] = tested on: barnyardgrass (Echinochloa crus-galli); assay: Test G Post-Emergence Protocol; conditions: Echinochloa crus-galli, post-emergence, 312 h; for pest or weed control at 15.625 g/ha: 15.625 g ai/ha, evaluated after 13 days (100=total damage to plant; 0=no damage to plant), read-out: Barnyardgrass damage rating; for pest or weed control at 62.5 g/ha: 62.5 g ai/ha, read-out: Barnyardgrass damage rating (100=total damage to plant; 0=no damage to plant); for pest or weed control at 62.5 g/ha / pest or weed control at 250 g/ha: evaluated after 13 days; for pest or weed control at 250 g/ha: 250 g ai/ha, read-out: damage to plant, Barnyardgrass (100=total damage to plant; 0=no damage to plant)
Method in brief: (§2)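 Foliar application was made 8 days after sowing, using an aqueous spray of the active in acetone/water (50:50) with 0.5% Tween 20, at doses of 15.625, 62.5 or 250 g/ha. Injury was assessed 13 days later, where 100 meant the plant was fully damaged.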

corn (Zea mays) [8] = assay: Test G Post-Emergence Protocol; conditions: Zea mays, post-emergence, 312 h; for plant injury at 15.625 g/ha: 15.625 g ai/ha, evaluated after 13 days (100=total damage to plant; 0=no damage to plant), read-out: Corn damage rating; for plant injury at 62.5 g/ha: 62.5 g ai/ha, read-out: Corn damage rating (100=total damage to plant; 0=no damage to plant); for plant injury at 62.5 g/ha / plant injury at 250 g/ha: evaluated after 13 days; for plant injury at 250 g/ha: 250 g ai/ha, read-out: damage to plant, Corn (100=total damage to plant; 0=no damage to plant)
Method in brief: as §2

[9] = tested on: giant foxtail (Setaria faberi); assay: Test G Post-Emergence Protocol; conditions: Setaria faberi, post-emergence, 312 h; for pest or weed control at 15.625 g/ha: 15.625 g ai/ha, evaluated after 13 days (100=total damage to plant; 0=no damage to plant), read-out: Foxtail, Giant damage rating; for pest or weed control at 62.5 g/ha: 62.5 g ai/ha, read-out: Foxtail, Giant damage rating (100=total damage to plant; 0=no damage to plant); for pest or weed control at 62.5 g/ha / pest or weed control at 250 g/ha: evaluated after 13 days; for pest or weed control at 250 g/ha: 250 g ai/ha, read-out: damage to plant, Foxtail, Giant (100=total damage to plant; 0=no damage to plant)
Method in brief: as §2

[10] = tested on: ivy-leaved morning glory (Ipomoea hederacea); assay: Test G Post-Emergence Protocol; conditions: Ipomoea, post-emergence, 312 h; for pest or weed control at 15.625 g/ha: 15.625 g ai/ha, evaluated after 13 days (100=total damage to plant; 0=no damage to plant), read-out: Morningglory, Ivy-leaved damage rating; for pest or weed control at 62.5 g/ha: 62.5 g ai/ha, read-out: Morningglory, Ivy-leaved damage rating (100=total damage to plant; 0=no damage to plant); for pest or weed control at 62.5 g/ha / pest or weed control at 250 g/ha: evaluated after 13 days; for pest or weed control at 250 g/ha: 250 g ai/ha, read-out: damage to plant, Morningglory, Ivy-leaved (100=total damage to plant; 0=no damage to plant)
Method in brief: as §2

[11] = tested on: redroot pigweed (Amaranthus retroflexus); assay: Test G Post-Emergence Protocol; conditions: Amaranthus retroflexus, post-emergence, 312 h; for pest or weed control at 15.625 g/ha: 15.625 g ai/ha, evaluated after 13 days (100=total damage to plant; 0=no damage to plant), read-out: Pigweed, Redroot damage rating; for pest or weed control at 62.5 g/ha: 62.5 g ai/ha, read-out: Pigweed, Redroot damage rating (100=total damage to plant; 0=no damage to plant); for pest or weed control at 62.5 g/ha / pest or weed control at 250 g/ha: evaluated after 13 days; for pest or weed control at 250 g/ha: 250 g ai/ha, read-out: damage to plant, Pigweed, Redroot (100=total damage to plant; 0=no damage to plant)
Method in brief: as §2

[12] = tested on: velvetleaf (Abutilon theophrasti); assay: Test G Post-Emergence Protocol; conditions: Abutilon theophrasti, post-emergence, 312 h; for pest or weed control at 15.625 g/ha: 15.625 g ai/ha, evaluated after 13 days (100=total damage to plant; 0=no damage to plant), read-out: Velvetleaf damage rating; for pest or weed control at 62.5 g/ha: 62.5 g ai/ha, read-out: Velvetleaf damage rating (100=total damage to plant; 0=no damage to plant); for pest or weed control at 62.5 g/ha / pest or weed control at 250 g/ha: evaluated after 13 days; for pest or weed control at 250 g/ha: 250 g ai/ha, read-out: damage to plant, Velvetleaf (100=total damage to plant; 0=no damage to plant)
Method in brief: as §2

Structure (SMILES) | pest or weed control at 15.625 g/ha [1] [%] | pest or weed control at 62.5 g/ha [1] [%] | pest or weed control at 250 g/ha [1] [%] | plant injury at 15.625 g/ha (corn (Zea mays) [2]) [%] | plant injury at 62.5 g/ha (corn (Zea mays) [2]) [%] | plant injury at 250 g/ha (corn (Zea mays) [2]) [%] | pest or weed control at 15.625 g/ha [3] [%] | pest or weed control at 62.5 g/ha [3] [%] | pest or weed control at 250 g/ha [3] [%] | pest or weed control at 15.625 g/ha [4] [%] | pest or weed control at 62.5 g/ha [4] [%] | pest or weed control at 250 g/ha [4] [%] | pest or weed control at 15.625 g/ha [5] [%] | pest or weed control at 62.5 g/ha [5] [%] | pest or weed control at 250 g/ha [5] [%] | pest or weed control at 15.625 g/ha [6] [%] | pest or weed control at 62.5 g/ha [6] [%] | pest or weed control at 250 g/ha [6] [%] | pest or weed control at 15.625 g/ha [7] [%] | pest or weed control at 62.5 g/ha [7] [%] | other results
Cc1ccc(NC(=O)[C@@H]2C(=O)N(C)C[C@H]2c2ccc(C(F)(F)F)cc2)nn1 (racemic) [Compound 1543] | 0 | 0 | 0 | 0 | 0 | 0 | 0 | 0 | 0 | 0 | 0 | 0 | 0 | 0 | 0 | 0 | 0 | 0 | 0 | 0 | pest or weed control at 250 g/ha [7]: 0%; plant injury at 15.625 g/ha (corn (Zea mays) [8]): 0%; plant injury at 62.5 g/ha (corn (Zea mays) [8]): 0%; plant injury at 250 g/ha (corn (Zea mays) [8]): 10%; pest or weed control at 15.625 g/ha [9]: 0%; pest or weed control at 62.5 g/ha [9]: 0%; pest or weed control at 250 g/ha [9]: 20%; pest or weed control at 15.625 g/ha [10]: 0%; pest or weed control at 62.5 g/ha [10]: 0%; pest or weed control at 250 g/ha [10]: 30%; pest or weed control at 15.625 g/ha [11]: 0%; pest or weed control at 62.5 g/ha [11]: 0%; pest or weed control at 250 g/ha [11]: 40%; pest or weed control at 15.625 g/ha [12]: 0%; pest or weed control at 62.5 g/ha [12]: 0%; pest or weed control at 250 g/ha [12]: 30%
CN1C[C@@H](c2ccc(C(F)(F)F)cc2)[C@H](C(=O)Nc2ccnc(Cl)n2)C1=O (racemic) [Compound 1544] | 0 | 0 | 0 | 0 | 0 | 0 | 0 | 0 | 0 | 0 | 0 | 0 | 0 | 0 | 0 | 0 | 0 | 0 | 0 | 0 | pest or weed control at 250 g/ha [7]: 0%; plant injury at 15.625 g/ha (corn (Zea mays) [8]): 10%; plant injury at 62.5 g/ha (corn (Zea mays) [8]): 10%; plant injury at 250 g/ha (corn (Zea mays) [8]): 10%; pest or weed control at 15.625 g/ha [9]: 0%; pest or weed control at 62.5 g/ha [9]: 0%; pest or weed control at 250 g/ha [9]: 0%; pest or weed control at 15.625 g/ha [10]: 0%; pest or weed control at 62.5 g/ha [10]: 0%; pest or weed control at 250 g/ha [10]: 0%; pest or weed control at 15.625 g/ha [11]: 0%; pest or weed control at 62.5 g/ha [11]: 0%; pest or weed control at 250 g/ha [11]: 0%; pest or weed control at 15.625 g/ha [12]: 0%; pest or weed control at 62.5 g/ha [12]: 0%; pest or weed control at 250 g/ha [12]: 0%
